Laboratory results reported in patent US20260216134A1, “CHARGED PI-CONJUGATED MOLECULES FOR THE TREATMENT OF MICROBIAL INFECTIONS” (priority 2023, published 2026).
Where two headings read alike, the source gives them in different places.

Experiments:
[1] = test system: A375 cancer cells (melanoma); assay: Crystal violet cytotoxicity test in A375 cells without light activation; format: cell-based, human
Method: (§1) The inhibitory concentration of charged pi-conjugated compounds needed to inhibit the cell growth by 50% (toxicity IC50).
(§2) Most of the charged pi-conjugated compounds are aminocyanines which are functionalized with alkyl amine group. The charged pi-conjugated compounds were added to cell cultures of A375 cancer cells (human melanoma) and their cytotoxicity was quantified by the crystal violet test and/or clonogenic assays for cell viability. […] The longer the exposure the most cytotoxic the charged pi-conjugated compounds are towards A375 cells. […] The same behavior is observed: the longer the exposure, the more cytotoxic. All molecules presented here are aminocyanines except GL-261-2 which is a carboxyl-cyanine. […] This was the first time a therapeutic window of concentration that can be tuned to selectively kill cancer and/or protect cells was suspected. In finding this therapeutic window concentration and time of exposure are important variables that should be fine tuned.
(§3) Based on the finding described above, a larger set of charged pi-conjugated compounds was evaluated for cytotoxicity against A375 cancer cells as shown in FIG. 25 and FIG. 26.
(§4) The IC50 is the concentration needed to inhibit the cell viability by 50%. These molecules in FIG. 25 and FIG. 26 were evaluated by crystal violet assay and using 2 days of exposure.

S. aureus = assay: Time-kill of combinations at 0.5×MIC; format: cell-based, Staphylococcus aureus; conditions: 0.5×MIC of individual agent, after 12 h of treatment
[2] = test system: A375 cancer cells (melanoma); assay: Clonogenic assay cytotoxicity in A375 cells without light; format: cell-based, human
Method: (§5) FIGS. 28A-28B provide a summary of the evidence of the cytotoxicity of charged pi-conjugated compounds without light. Toxicity was measured using clonogenic assay with 7 hours of incubation (contact time between molecules and A375 cells) and 7 days for colony formation. (FIG. 28A) The lethal concentration of the cyanine molecules to kill 50% of the A375 cells (Tox LC50) without light activation. (FIG. 28B) Chemical structure of exemplary charged pi-conjugated compounds. On average, 300 cells equal to 300 colonies were seeded and analyzed for each data point.
(§6) Both properties were measured using clonogenic assay with 7 hours of incubation (contact time between molecules and A375 cells) and 7 days for colony formation. 300 cells were seeded and analyzed for each data point.
(§7) More cytotoxicity tests were conducted in some additional molecules and using clonogenic assay for cell viability (FIG. 28). A375 cells were exposed to charged pi-conjugated compounds for 7 hours, in contrast to the previously presented assays which were conducted with crystal violet assay and 2 days of exposure. The data points showing the cytotoxicity quantification for each individual molecule are presented in FIG. 29, with resulting IC50 values summarized in Table 4.

[3] = Crystal violet cytotoxicity test in A375 cells without light activation; format: cell-based, human; conditions: human
Method: as §1, §2, §3, §4

[4] = Clonogenic assay cytotoxicity in A375 cells without light; format: cell-based, human; conditions: human
Method: as §5, §6, §7

Gram-positive strains = assay: MIC / MIC50 by broth microdilution in panel of Gram-positive strains; format: cell-based; conditions: MIC50 over all Gram-positive strains tested (Table 2)
Method: Antibacterial activity was assessed by determining the minimal inhibitory concentration (MIC) and the minimal bactericidal concentrations (MBC) and by monitoring time-dependent bacterial killing of exponentially growing cells. Bacterial cell suspensions (OD600≈0.02 in cation-adjusted Muller-Hinton Broth) were treated with increasing concentrations of the different molecules. The minimal inhibitory concentration (MIC) was defined as the minimal concentration of the molecule resulting in complete bacterial growth arrest. The minimal bactericidal concentration (MBC) was defined as the lowest concentration of the molecule that killed 99.9% of the inoculum. A molecule was determined to be bactericidal if the ratio of the MBC to the MIC was less than 4 to 6. […] In M. smegmatis, the antibacterial activity of charged pi-conjugated compounds was generally lower.
The MIC values for all Gram-positive strains tested (Table 2) were used to calculate the MIC50, i.e., the minimum inhibitory concentration needed to inhibit the growth of 50% of the tested isolates (FIG. 5A). […] When the average MIC50 values were evaluated, the most susceptible bacterial genera were Streptococcus sp., followed by Staphylococcus sp. In contrast, Propionibacterium sp. had the highest average MIC50 (FIG. 5B).
The broth microdilution method was used to determine the MIC of charged pi-conjugated compounds according to the CLSI guidelines. Charged pi-conjugated compound stock solutions (16 mM) were prepared in dimethyl sulfoxide (DMSO). Serial twofold dilutions of the charged pi-conjugated compounds were freshly prepared using the appropriate liquid media (Table 2), and 100 μL of each dilution was added to the appropriate wells of 96-well microtiter plates. The bacterial inoculum was further diluted in liquid media, and 100 μL was added to each well, resulting in a final cell density of ≈5×10^5 CFU mL^−1. […] A molecule was determined to be bactericidal if the ratio of the MBC to the MIC was less than 4 to 6. […]

[5] = clonogenic assay, 7 hours of exposure, 7 days colony formation, without light, read-out: IC50 (μM), cytotoxicity to A375 cancer cells
[6] = crystal violet assay, 2 days of exposure, without light activation, read-out: IC50 (μM), cytotoxicity to A375 cancer cells

C[N+]1=C(C=CC=CC=C2N(CCCCCC(=O)NCCCCCCN)c3ccccc3C2(C)C)C(C)(C)c2ccccc21 [Cy5-amine]
IC50 [1]: 8 µM

gramicidin
maximum reduction in bacterial population size (S. aureus): ≈ 3 log10

CN1/C(=C/C=C2C=C(/C=C/C3=[N+](C)c4ccc5ccccc5c4C3(C)C)CCC/2)C(C)(C)c2c1ccc1ccccc21 [BL-141-1, 1,1,3-trimethyl-2-((E)-2-((E)-3-((E)-2-(1,1,3-trimethyl-1,3-dihydro-2H-benzo[e]indol-2-ylidene)ethylidene)cyclohex-1-en-1-yl)vinyl)-1H-benzo[e]indol-3-ium]
IC50 [2, 5]: 0.14 µM | IC50 [1, 6]: 0.125 µM

CN(C)CC[N+]1=C(/C=C/C2=CC(=C/C=C3/N(C)c4ccc5ccccc5c4C3(C)C)/CC(C(C)(C)C)C2)C(C)(C)c2c1ccc1ccccc21 (stereo not shown) [GL-349-2]
IC50 at 2 days [3]: 0.3 µM

CN1/C(=C/C=C/C=C/C=C/C2=[N+](CCCCCC[N+](C)(C)C)c3ccc4ccccc4c3C2(C)C)C(C)(C)c2c1ccc1ccccc21 [GL-328-2]
IC50 at 2 days [3]: 7 µM

C[N+]1=C(/C=C/C2=CC(=C/C=C3/N(CCCCCC(=O)NCCCCCCN)c4ccccc4C3(C)C)/CCC2)C(C)(C)c2ccccc21 [Cy7-amine]
IC50 [2]: 0.75 µM | IC50 [1]: 2 µM

CN(C)CCCCCCN1/C(=C/C=C2C=C(/C=C/C3=[N+](CCCCCCN(C)C)c4ccc5ccccc5c4C3(C)C)CCC/2)C(C)(C)c2c1ccc1ccccc21.[Br-] [BL-142, 3-(6-(dimethylamino)hexyl)-2-((E)-2-((E)-3-((E)-2-(3-(6-(dimethylamino)hexyl)-1,1-dimethyl-1,3-dihydro-2H-benzo[e]indol-2-ylidene)ethylidene)cyclohex-1-en-1-yl)vinyl)-1,1-dimethyl-1H-benzo[e]indol-3-ium]
IC50 at 2 days [3]: 2.5 µM | cytotoxicity at long exposure [1]: showed cytotoxicity

COC(=O)C(/C=C/C=C1/N(C)c2ccc3ccccc3c2C1(C)C)=C(C)\C=C\C1=[N+](CCCCCCN(C)C)c2ccc3ccccc3c2C1(C)C [GL-297-2]
IC50 at 7 h [4]: 0.45 µM | IC50 at 2 days [3]: 1 µM

CN(C)CC[N+]1=C(/C=C/C=C/C=C/C=C2/N(C)c3ccc4ccccc4c3C2(C)C)C(C)(C)c2c1ccc1ccccc21 [GL-308-2]
IC50 at 2 days [3]: 0.5 µM

CN(C)CCCCCC[N+]1=C(/C=C/C=C/C=C/C=C2/N(C)c3ccc4ccccc4c3C2(C)C)C(C)(C)c2c1ccc1ccccc21 [GL-291-2]
IC50 at 2 days [3]: 1.5 µM | cytotoxicity at long exposure [1]: showed cytotoxicity

CN1/C(=C/C=C/C=C/C=C/C2=[N+](CCCCCC(=O)O)c3ccc4ccccc4c3C2(C)C)C(C)(C)c2c1ccc1ccccc21 [GL-261-2]
IC50 at 7 h [4, 5]: 5 µM | IC50 at 2 days [3, 6]: 2 µM | cytotoxicity at short exposure ([1]; A375, exposure ~30-50 min): safe and showed low cytotoxicity | effect toward A375 cells at short exposure ([1]; ~50 min exposure, 1-4 μM): protective effect

COC(=O)CCCCCN1/C(=C/C=C2C=C(/C=C/C3=[N+](CCCCCC(=O)OC)c4ccc5ccccc5c4C3(C)C)CCC/2)C(C)(C)c2c1ccc1ccccc21 [BL-246-1, 3-(6-methoxy-6-oxohexyl)-2-((E)-2-((E)-3-((E)-2-(3-(6-methoxy-6-oxohexyl)-1,1-dimethyl-1,3-dihydro-2H-benzo[e]indol-2-ylidene)ethylidene)cyclohex-1-en-1-yl)vinyl)-1,1-dimethyl-1H-benzo[e]indol-3-ium]
IC50 at 7 h [4]: 0.6 µM

CN1/C(=C/C=C2C=C(/C=C/C3=[N+](CCCCCC(=O)O)c4ccc5ccccc5c4C3(C)C)CCC/2)C(C)(C)c2c1ccc1ccccc21 [BL-242, 3-(5-carboxypentyl)-1,1-dimethyl-2-((E)-2-((E)-3-((E)-2-(1,1,3-trimethyl-1,3-dihydro-2H-benzo[e]indol-2-ylidene)ethylidene)cyclohex-1-en-1-yl)vinyl)-1H-benzo[e]indol-3-ium]
IC50 at 7 h [4]: 2 µM

C[N+]1=C(/C=C/C=C/C=C2/N(CCCCCC(=O)NCCCCCCN)c3ccc4ccccc4c3C2(C)C)C(C)(C)c2c1ccc1ccccc21.Cl.[Cl-] [Cy5.5-amine]
antibacterial activity according to MIC50 (Gram-positive strains): strongest antibacterial activity | IC50 [1]: 2 µM | cytotoxicity at short exposure [1]: safe and showed low cytotoxicity

CC(=O)NCCCCCC[N+]1=C(/C=C/C=C/C=C/C=C2/N(C)c3ccc4ccccc4c3C2(C)C)C(C)(C)c2c1ccc1ccccc21 [GL-362-2]
IC50 at 7 h [4]: 0.19 µM

CN1/C(=C/C=C/C=C/C=C/C2=[N+](CCCCCCN)c3ccc4ccccc4c3C2(C)C)C(C)(C)c2c1ccc1ccccc21 [GL-286]
IC50 at 7 h [4, 5]: 1 µM | IC50 at 2 days [3, 6]: 2.88 µM | cell viability at short incubation and low concentration ([1]; 1 day incubation, concentrations below 1 μM): can increase the cell viability | cytotoxicity at long exposure ([1]; A375, 1 day vs 2 days exposure): showed cytotoxicity

CN1/C(=C/C=C/C=C/C=C/C2=[N+](C)c3ccc4ccccc4c3C2(C)C)C(C)(C)c2c1ccc1ccccc21 [GL-176]
IC50 [1]: 0.25 µM

CCCCCCCCCC(=O)N[C@@H](Cc1c[nH]c2ccccc12)C(=O)N[C@H](CC(N)=O)C(=O)N[C@@H](CC(=O)O)C(=O)N[C@@H]1C(=O)NCC(=O)N[C@@H](CCCN)C(=O)N[C@@H](CC(=O)O)C(=O)N[C@H](C)C(=O)N[C@@H](CC(=O)O)C(=O)NCC(=O)N[C@H](CO)C(=O)N[C@@H]([C@H](C)CC(=O)O)C(=O)N[C@@H](CC(=O)c2ccccc2N)C(=O)O[C@@H]1C [daptomycin]
maximum reduction in bacterial population size (S. aureus): ≈ 3 log10
